Results taken from patent publication US8481531B2, “Bicyclic heterocyclyl derivatives as FGFR kinase inhibitors for therapeutic use” (Astex Therapeutics Ltd, priority 2009, dated 2013).

Legend:
[1] = test system: parental wild-type Ba/F3 cells; experiment: Ba/F3 (WT) cell proliferation assay (Alamar Blue); type: cell-based; conditions: BaF3, 72 hours, read-out: BaF3 WT prolif; for inhibition at 10 µM / inhibition at 1 µM / inhibition at 3 µM: Mus musculus; for IC50: with mouse IL-3
Experimental: (§1) Ba/F3-TEL-FGFR3 & Ba/F3 (WT) Cell Proliferation Assays
(§2) Stably transfected Ba/F3-TEL-FGFR3 cells were plated out into black 96-well tissue culture plates with clear bottoms in RPMI medium containing 10% FBS and 0.25 mg/ml G418 at a density of 5×10^3 cells/well (200 μl per well). The parental wild-type Ba/F3 cells (DSMZ no.: ACC 300) were plated out into black 96-well tissue culture plates with clear bottoms in RPMI medium containing 10% FBS and 2 ng/ml mouse IL-3 (R&D Systems) at a density of 2.5×10^3 cells/well (200 μl per well). Plates were placed in an incubator overnight before adding the compounds the following day. Dilutions of compounds were made in DMSO starting at 10 mM and were diluted into the wells to give a final DMSO concentration of 0.1% in assay. Compounds were left on the cells for 72 hours before the plates were removed from the incubator and 20 μl of Alamar Blue™ (Biosource) was added to each well. Plates were placed in the incubator for 4-6 hours before reading plates at 535 nm (excitation)/590 nm (emission) on a Fusion plate reader (Packard). Where inhibition is high an IC50 can be determined.

[2] = target: T1, Ba/F3-TEL-FGFR3 cells (Homo sapiens, UniProt P22607); experiment: Ba/F3-TEL-FGFR3 cell proliferation assay (Alamar Blue); type: cell-based; conditions: 72 hours; for GI50: read-out: BaF3-TEL-FGFR3 prolif
T1 construct: fused on or other part: P41212 (Transcription factor ETV6)
T1 sequence (P22607 whole entry, change not shown, the tested form may be a part): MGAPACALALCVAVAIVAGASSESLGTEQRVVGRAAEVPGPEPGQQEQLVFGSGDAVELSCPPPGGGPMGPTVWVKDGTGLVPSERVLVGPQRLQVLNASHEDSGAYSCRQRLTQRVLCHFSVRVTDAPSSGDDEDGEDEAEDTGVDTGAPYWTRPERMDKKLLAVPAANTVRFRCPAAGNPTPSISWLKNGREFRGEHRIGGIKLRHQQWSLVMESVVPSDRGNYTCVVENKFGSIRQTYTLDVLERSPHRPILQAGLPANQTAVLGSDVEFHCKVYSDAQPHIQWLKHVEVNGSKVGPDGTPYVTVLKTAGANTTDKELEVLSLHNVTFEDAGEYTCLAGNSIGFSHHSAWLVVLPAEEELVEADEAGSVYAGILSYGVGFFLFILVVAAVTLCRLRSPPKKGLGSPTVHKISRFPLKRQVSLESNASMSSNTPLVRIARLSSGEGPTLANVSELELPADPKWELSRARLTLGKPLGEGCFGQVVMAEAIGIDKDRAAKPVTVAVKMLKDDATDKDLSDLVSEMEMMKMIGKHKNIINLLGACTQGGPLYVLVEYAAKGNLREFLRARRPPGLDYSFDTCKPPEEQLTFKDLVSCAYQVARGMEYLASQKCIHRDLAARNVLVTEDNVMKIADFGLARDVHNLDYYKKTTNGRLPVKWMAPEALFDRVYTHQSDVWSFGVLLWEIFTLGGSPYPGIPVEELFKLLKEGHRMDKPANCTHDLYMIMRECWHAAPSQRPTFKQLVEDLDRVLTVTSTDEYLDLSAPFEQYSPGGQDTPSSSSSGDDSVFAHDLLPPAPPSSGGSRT
Experimental: as §1, §2

[3] = target: T2, VEGFR2 (Homo sapiens, UniProt P35968); experiment: VEGFR2 in vitro kinase inhibitory activity assay (TRF); type: biochemical; conditions: 0.5 μM ATP, 1 hour; read-out: VEGFR2 IC50(μM) or % I
T2 construct: purchased Upstate
T2 sequence (P35968 20-1356): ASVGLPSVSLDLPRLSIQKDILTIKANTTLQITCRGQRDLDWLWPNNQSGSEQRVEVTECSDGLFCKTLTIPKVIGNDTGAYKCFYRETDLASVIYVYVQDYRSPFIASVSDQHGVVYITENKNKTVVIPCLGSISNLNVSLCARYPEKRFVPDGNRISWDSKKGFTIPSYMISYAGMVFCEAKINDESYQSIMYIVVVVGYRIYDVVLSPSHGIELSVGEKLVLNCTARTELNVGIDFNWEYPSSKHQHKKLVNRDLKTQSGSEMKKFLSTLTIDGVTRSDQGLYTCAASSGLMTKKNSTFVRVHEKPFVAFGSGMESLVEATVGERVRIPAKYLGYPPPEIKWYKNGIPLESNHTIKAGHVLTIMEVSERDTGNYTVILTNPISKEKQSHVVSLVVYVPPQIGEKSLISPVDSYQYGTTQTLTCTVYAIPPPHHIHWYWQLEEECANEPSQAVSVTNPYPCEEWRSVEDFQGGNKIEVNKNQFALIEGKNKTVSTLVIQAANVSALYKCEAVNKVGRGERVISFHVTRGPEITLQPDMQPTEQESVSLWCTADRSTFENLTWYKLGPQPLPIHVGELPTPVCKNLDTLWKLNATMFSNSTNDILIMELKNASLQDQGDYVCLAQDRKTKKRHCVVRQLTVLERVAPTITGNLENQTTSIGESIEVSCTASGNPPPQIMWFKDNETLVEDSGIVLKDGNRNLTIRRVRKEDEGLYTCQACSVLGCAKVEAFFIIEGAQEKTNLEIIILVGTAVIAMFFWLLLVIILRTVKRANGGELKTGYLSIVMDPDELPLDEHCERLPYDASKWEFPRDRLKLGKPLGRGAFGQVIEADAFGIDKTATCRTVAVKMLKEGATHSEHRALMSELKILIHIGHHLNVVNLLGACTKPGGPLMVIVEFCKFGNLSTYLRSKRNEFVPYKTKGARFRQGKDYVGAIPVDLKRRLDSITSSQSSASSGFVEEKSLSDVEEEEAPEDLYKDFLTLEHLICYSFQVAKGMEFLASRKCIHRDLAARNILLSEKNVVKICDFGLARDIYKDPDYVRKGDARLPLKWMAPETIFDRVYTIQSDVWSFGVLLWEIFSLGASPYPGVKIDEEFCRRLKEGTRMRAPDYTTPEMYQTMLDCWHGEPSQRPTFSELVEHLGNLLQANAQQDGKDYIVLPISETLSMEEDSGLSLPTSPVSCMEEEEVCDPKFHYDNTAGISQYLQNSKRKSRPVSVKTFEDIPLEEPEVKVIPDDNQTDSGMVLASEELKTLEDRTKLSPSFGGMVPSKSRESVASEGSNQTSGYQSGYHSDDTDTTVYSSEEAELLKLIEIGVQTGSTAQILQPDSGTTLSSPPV
Experimental: (§3) FGFR3, VEGFR2 and PDGFR in vitro Kinase Inhibitory Activity Assays
(§4) Enzymes (from Upstate), prepared at 2× final concentration, were incubated with test compounds, biotinylated Flt3 substrate (biotin-VASSDNEYFYVDF) (Cell Signalling Technology Inc.) and ATP in the appropriate assay buffer (Table 1). The reaction was allowed to proceed for 3 hours (FGFR3), 1 hour (VEGFR2, PDGFR-beta) at room temperature on a plate shaker at 700 rpm before being stopped with 35 mM EDTA, pH 8 (FGFR3, VEGFR2) or 55 mM EDTA, pH 8 (PDGFR-beta). 5× detection mix (50 mM HEPES pH 7.5, 0.1% BSA, 11.34 nM Eu-anti-pY (PY20) (PerkinElmer) 74 nM SA-XL665 (Cisbio) for FGFR3, 50 mM HEPES, pH 7.5, 0.1% BSA, 11.34 nM Eu-anti-pY (PY20), 187.5 nM SA-XL665 for VEGFR2 and 50 mM HEPES, pH 7.5, 0.1% BSA, 11.34 nM Eu-anti-pY (PT66) (PerkinElmer), 375 nM SA-XL665 (Cisbio) for PDGFR-beta) was then added to each well and the plate sealed and incubated at room temperature for one hour on a plate shaker at 700 rpm. The plate was then read on a Packard Fusion plate reader or a BMG Pherastar both in TRF mode.

[4] = target: T3, FGFR3 (Homo sapiens, UniProt P22607); experiment: FGFR3 in vitro kinase inhibitory activity assay (TRF); type: biochemical; conditions: 8 μM ATP, 3 hours; read-out: FGFR3 IC50(μM) or % I
T3 construct: purchased Upstate
T3 sequence (P22607 23-806): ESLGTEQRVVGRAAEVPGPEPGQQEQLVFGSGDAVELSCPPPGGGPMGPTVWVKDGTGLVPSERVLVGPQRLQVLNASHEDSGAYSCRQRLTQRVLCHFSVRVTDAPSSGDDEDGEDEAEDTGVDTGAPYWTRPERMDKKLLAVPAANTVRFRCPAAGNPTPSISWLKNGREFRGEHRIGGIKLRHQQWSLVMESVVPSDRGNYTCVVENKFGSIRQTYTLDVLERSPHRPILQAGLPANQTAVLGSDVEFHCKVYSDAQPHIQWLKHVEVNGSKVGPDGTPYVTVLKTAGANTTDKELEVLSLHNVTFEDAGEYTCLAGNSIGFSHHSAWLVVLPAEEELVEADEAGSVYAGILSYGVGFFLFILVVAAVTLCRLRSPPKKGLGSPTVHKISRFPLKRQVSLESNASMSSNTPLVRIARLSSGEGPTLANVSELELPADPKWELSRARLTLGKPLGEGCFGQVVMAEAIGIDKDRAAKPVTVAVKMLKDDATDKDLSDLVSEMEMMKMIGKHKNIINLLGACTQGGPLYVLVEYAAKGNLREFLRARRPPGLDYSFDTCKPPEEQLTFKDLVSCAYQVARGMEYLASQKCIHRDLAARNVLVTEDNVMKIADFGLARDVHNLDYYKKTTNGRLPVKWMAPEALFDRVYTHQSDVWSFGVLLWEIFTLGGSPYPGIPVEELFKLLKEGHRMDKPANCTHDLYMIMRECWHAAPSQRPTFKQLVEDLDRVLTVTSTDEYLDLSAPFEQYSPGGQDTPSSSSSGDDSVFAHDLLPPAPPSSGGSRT
Experimental: as §3, §4

| SMILES | inhibition at 10 µM [1] [%] | GI50 [2] [nM] | IC50 [3] [µM] | IC50 [4] [µM] | IC50 [1] [nM] | inhibition at 1 µM [1] [%] | BaF3-TEL-FGFR3 prolif (μM) ([2]; % at 1.00 μM) [% at] | BaF3-TEL-FGFR3 prolif (μM) ([2]; % at 10.0 μM) [% at] | inhibition at 3 µM [1] [%] |
| --- | --- | --- | --- | --- | --- | --- | --- | --- | --- |
| Cc1noc(C)c1CON=Cc1ccn2c(-c3cccc(NC(=O)NCC(F)(F)F)c3)cnc2c1 [Compound 1-12, 1-(3-{7-[(3,5-Dimethyl-isoxazol-4-ylmethoxyimino)-methyl]-imidazo[1,2-a]pyridin-3-yl}-phenyl)-3-(2,2,2-trifluoro-ethyl)-urea] | 38 | 240 | 0.54 | 0.018 | – | – | – | – | – |
| CN1CCC(ON=Cc2ccn3c(-c4cccc(NC(=O)NCC(F)(F)F)c4)cnc3c2)CC1 [Compound 1-10, 1-(3-{7-[(1-Methyl-piperidin-4-yloxyimino)-methyl]-imidazo[1,2-a]pyridin-3-yl}-phenyl)-3-(2,2,2-trifluoro-ethyl)-urea] | – | 140 | 0.27 | 0.019 | 2800 | – | – | – | – |
| O=C(NCC(F)(F)F)Nc1cccc(-c2cnc3cc(C=NOCc4ccco4)ccn23)c1 [Compound 1-15, 1-(3-{7-[(Furan-2-ylmethoxyimino)-methyl]-imidazo[1,2-a]pyridin-3-yl}-phenyl)-3-(2,2,2-trifluoro-ethyl)-urea] | – | 43 | 0.98 | 0.026 | 4600 | – | – | – | – |
| N#CCCN1CCN(CCCON=Cc2ccn3c(-c4cccc(NC(=O)NCC(F)(F)F)c4)cnc3c2)CC1 [Compound 1-60, 1-{3-[7-({3-[4-(2-Cyano-ethyl)-piperazin-1-yl]-propoxyimino}-methyl)-imidazo[1,2-a]pyridin-3-yl]-phenyl}-3-(2,2,2-trifluoro-ethyl)-urea] | – | – | 0.56 | 0.022 | – | 0 | 85.0 | – | – |
| CON=C(CC1CC1)c1ccn2c(-c3cccc(NC(=O)NCC(F)(F)F)c3)cnc2c1 [Compound 1-29, 1-[3-(7-{2-Cyclopropyl-1-methoxyimino-ethyl}-imidazo[1,2-a]pyridin-3-yl)-phenyl]-3-(2,2,2-trifluoro-ethyl)-urea] | 16 | – | > 1 | 0.059 | – | – | – | 28.0 | – |
| O=C(NCC(F)(F)F)Nc1cccc(-c2cnc3cc(C(CC4CC4)=NO)ccn23)c1 [Compound 1-30, 1-[3-(7-{2-Cyclopropyl-1-hydroxyimino-ethyl}-imidazo[1,2-a]pyridin-3-yl)-phenyl]-3-(2,2,2-trifluoro-ethyl)-urea] | 20 | – | 0.29 | 0.019 | – | – | – | 43.0 | – |
| CN(CCO)CCON=Cc1ccn2c(-c3cccc(NC(=O)NCC(F)(F)F)c3)cnc2c1 [Compound 1-58, 1-{3-[7-({2-[(2-Hydroxy-ethyl)-methyl-amino]-ethoxyimino}-methyl)-imidazo[1,2-a]pyridin-3-yl]-phenyl}-3-(2,2,2-trifluoro-ethyl)-urea] | 55 | 780 | 0.34 | 0.029 | – | – | – | – | – |
| COC1CCN(CCCON=Cc2ccn3c(-c4cccc(NC(=O)NCC(F)(F)F)c4)cnc3c2)CC1 [Compound 1-36, 1-[3-(7-{[3-(4-Methoxy-piperidin-1-yl)-propoxyimino]-methyl}-imidazo[1,2-a]pyridin-3-yl)-phenyl]-3-(2,2,2-trifluoro-ethyl)-urea] | – | 380 | 0.36 | 0.024 | – | – | – | – | 34 |
| Cc1cc(CON=Cc2ccn3c(-c4cccc(NC(=O)NCC(F)(F)F)c4)cnc3c2)n(C)n1 [Compound 1-13, 1-(3-{7-[(2,5-Dimethyl-2H-pyrazol-3-ylmethoxyimino)-methyl]-imidazo[1,2-a]pyridin-3-yl}-phenyl)-3-(2,2,2-trifluoro-ethyl)-urea] | – | 300 | 0.66 | 0.03 | – | 46 | – | – | – |
| COCCN(CCON=Cc1ccn2c(-c3cccc(NC(=O)NCC(F)(F)F)c3)cnc2c1)Cc1ccccc1 [Compound 1-41, 1-{3-[7-({2-[Benzyl-(2-methoxy-ethyl)-amino]-ethoxyimino}-methyl)-imidazo[1,2-a]pyridin-3-yl]-phenyl}-3-(2,2,2-trifluoro-ethyl)-urea] | – | 860 | 1.79 | 0.0551 | 5900 | – | – | – | – |
| O=C(NCC(F)(F)F)Nc1cccc(-c2cnc3cc(C=NOCC(O)CNC4CC4)ccn23)c1 (stereo not shown) [Compound 1-61, 1-(3-{7-[(3-Cyclopropylamino-2-hydroxy-propoxyimino)-methyl]-imidazo[1,2-a]pyridin-3-yl}-phenyl)-3-(2,2,2-trifluoro-ethyl)-urea] | – | 930 | 0.44 | 0.029 | – | – | – | – | 30 |
| CN(C)CCON=Cc1ccn2c(-c3cccc(NC(=O)NCC(F)(F)F)c3)cnc2c1 [Compound 1-57, 1-(3-{7-[(2-Dimethylamino-ethoxyimino)-methyl]-imidazo[1,2-a]pyridin-3-yl}-phenyl)-3-(2,2,2-trifluoro-ethyl)-urea] | – | 250 | 0.47 | 0.029 | – | – | – | – | 30 |
| O=C(NCC(F)(F)F)Nc1cccc(-c2cnc3cc(C=NOCCCN4CCN(CCO)CC4)ccn23)c1 [Compound 1-39, 1-{3-[7-({3-[4-(2-Hydroxy-ethyl)-piperazin-1-yl]-propoxyimino}-methyl)-imidazo[1,2-a]pyridin-3-yl]-phenyl}-3-(2,2,2-trifluoro-ethyl)-urea] | – | 1300 | 0.39 | 0.025 | – | – | – | – | 47 |
| COCCNCCON=Cc1ccn2c(-c3cccc(NC(=O)NCC(F)(F)F)c3)cnc2c1 [Compound 1-53, 1-[3-(7-{[2-(2-Methoxy-ethylamino)-ethoxyimino]-methyl}-imidazo[1,2-a]pyridin-3-yl)-phenyl]-3-(2,2,2-trifluoro-ethyl)-urea] | – | 480 | 0.81 | 0.035 | 13000 | – | – | – | – |
| CON=C(c1ccn2c(-c3cccc(NC(=O)NCC(F)(F)F)c3)cnc2c1)C1CCC1 [Compound 1-27, 1-[3-(7-{Cyclobutyl-methoxyimino-methyl}-imidazo[1,2-a]pyridin-3-yl)-phenyl]-3-(2,2,2-trifluoro-ethyl)-urea] | – | 1300 | 1.2 | 0.08 | 1500 | – | – | – | – |
| CS(=O)(=O)CCNCCON=Cc1ccn2c(-c3cccc(NC(=O)NCC(F)(F)F)c3)cnc2c1 [Compound 1-52, 1-[3-(7-{[2-(2-Methanesulfonyl-ethylamino)-ethoxyimino]-methyl}-imidazo[1,2-a]pyridin-3-yl)-phenyl]-3-(2,2,2-trifluoro-ethyl)-urea] | 25 | 4900 | 0.73 | 0.026 | – | – | – | – | – |
| O=C(NCC(F)(F)F)Nc1cccc(-c2cnc3cc(C=NOCCCNC4CCOCC4)ccn23)c1 [Compound 1-37, 1-[3-(7-{[3-(Tetrahydro-pyran-4-ylamino)-propoxyimino]-methyl}-imidazo[1,2-a]pyridin-3-yl)-phenyl]-3-(2,2,2-trifluoro-ethyl)-urea] | 43 | 3500 | 0.27 | 0.028 | – | – | – | – | – |
| C/C(=N\O)c1ccn2c(-c3cccc(NC(=O)NCC(F)(F)F)c3)cnc2c1 [Compound 1-21, 1-[3-(7-{1-Hydroxyimino-ethyl}-imidazo[1,2-a]pyridin-3-yl)-phenyl]-3-(2,2,2-trifluoro-ethyl)-urea] | 17 | 46 | 0.03 | 0.0019 | – | – | – | – | – |
| CN(C)S(=O)(=O)N1CCN(CCCO/N=C/c2ccn3c(-c4cccc(NC(=O)NCC(F)(F)F)c4)cnc3c2)CC1 [Compound 1-63, 4-{3-[1-(3-{3-[3-(2,2,2-Trifluoro-ethyl)-ureido]-phenyl}-imidazo[1,2-a]pyridin-7-yl)-meth-(E)-ylideneaminooxy]-propyl}-piperazine-1-sulfonic acid dimethylamide] | – | 310 | 0.5 | 0.016 | – | – | – | – | 45 |
